What was measured:
[1] = test system: G. lamblia trophozoites (luciferase expressing, WBC6); assay: microbe, parasite or virus in culture; assay type: cell-based, Giardia lamblia; conditions: for Giardia (16 uM) Mean % inhibition: initial Pathogen Box screen, single concentration 16 µM, inhibition compared to DMSO wells
Procedure: Trophozoites were harvested by chilling cultures on ice for 30 minutes and plated by adding 150 μL per well at a concentration of 250,000 cells/mL. Metronidazole (Sigma, St. Louis, MO) was used as a control and was serially diluted 1:2 from 40 μM to 0.04 μM and 150 μL was added to the 150 μL of the G. lamblia trophozoites. Plates were covered in plastic low-evaporation lids, sealed in individual anaerobic BD GasPak Bio-Bags (Becton Dickinson, San Jose, CA) and incubated at 37 °C for 24 hours. […] A duplicate plate was concurrently set up and assayed using a MOXI Z Mini Automated Cell Counter Kit (Orflo, Ketchum, ID). Results obtained from the bioluminescence assay and the MOXI counter data were compared to evaluate their correlation to each another. Albendazole (Sigma, St. Louis, MO), an alternative giardiasis therapeutic, was assayed in concentrations from 4 μM to 0.004 μM with only the luciferase expressing G. lamblia cells. […]

[2] = test system: C. parvum (UGA1 Nluc expressing strain in HCT-8 cells); assay: microbe, parasite or virus in culture; assay type: cell-based, Cryptosporidium parvum; conditions: for Crypto (10 uM) Mean % inhibition: initial Pathogen Box screen, single concentration 10 µM, inhibition compared to DMSO wells
Procedure: Growth inhibition and EC50 determination assays were performed using UGA1 Nluc expressing C. parvum strain in HCT-8 cells (ATCC^©, Manassas, VA) as previously described. HCT-8 cells were inoculated onto 96-well plates and allowed to grow for 48 hours to 90–100% confluence and then treated with single concentration (10 μM) or serially diluted compounds prior to oocyst infection. C. parvum oocysts were incubated for 10 minutes in 10% bleach at room temperature and then washed with DPBS. […] The cell monolayers were lysed for 1 hour before adding Nano-Glo® luciferase reagent (Promega, Madison, WI), and measuring relative luminescence units (RLU) in an EnVision Plate Reader (Perkin Elmer, Waltham, MA). Several parameters, including reproducibility and reliability, were previously evaluated to optimize this assay for low and high-throughput (HTP) screening of small molecule compounds against C. parvum. EC50 values were calculated using Prism 7 software (GraphPad Software, San Diego, CA).
C. parvum screening against the Pathogen Box compounds was performed as previously described starting at a concentration of 10 μM [23].

SMILES	Giardia (16 uM) Mean % inhibition [1]	Crypto (10 uM) Mean % inhibition [2]	G. lamblia inhibition of parasite growth in the initial screen ([1]; 16 μM, 24 hours)	G. lamblia EC50 ([1]; luciferase expressing G. lamblia trophozoites, 24 hours, D-luciferin bioluminescence read-out)	C. parvum cell growth inhibition in the initial screen ([2]; 10 μM, 48 hours)	EC50 ([2]; Nluc C. parvum in HCT-8 cells, 48 hours, read-out: C. parvum EC50)
O=C(CN1CCOCC1)Nc1ccc2ncnc(Nc3ccc(OCc4cccc(F)c4)c(Cl)c3)c2c1 [MMV688274]	26%	47%	–	–	–	–
COC(=O)c1c(NC(=O)c2cc3ccccc3oc2=O)sc2c1CCN(Cc1ccccc1)C2 [MMV676480]	7%	63%	–	–	–	–
CCc1ccc(S(=O)(=O)Nc2cc(CN3CCN(CCC(C)C)CC3)ccc2C)cc1 [MMV688124]	72%	X* (Mean or standard deviation are negative but not significantly different from the control to be a growth promoter)	–	–	–	–
NC(N)=Nc1ccc(-c2ccc(-c3ccc(N=C(N)N)cc3Cl)o2)c(Cl)c1 [MMV688179]	11%	56%	–	–	–	–
Clc1ccc(CCNc2cc(-c3ccccc3)nc3ncnn23)cc1 [MMV688889]	65%	51%	–	–	–	–
C[C@@H]1[C@H](O)[C@@H](C)/C=C/C=C/C=C/C=C/C=C/C=C/C=C/[C@H](O[C@@H]2O[C@H](C)[C@@H](O)[C@H](N)[C@@H]2O)C[C@@H]2O[C@](O)(C[C@@H](O)C[C@@H](O)[C@H](O)CC[C@@H](O)C[C@@H](O)CC(=O)O[C@H]1C)C[C@H](O)[C@H]2C(=O)O [MMV689000]	41%	X* (Mean or standard deviation are negative but not significantly different from the control to be a growth promoter)	–	–	–	–
CCCn1nnc(NC(=O)COc2ccc(C3CCCCC3)cc2)n1 [MMV676597]	31%	60%	–	–	–	–
c1ccc(Oc2ccc(-c3cc(C4CCOCC4)[nH]n3)cc2)cc1 [MMV687762]	X* (Mean or standard deviation are negative but not significantly different from the control to be a growth promoter)	68%	–	–	–	–
O=C([C@@H](c1ccc(Cl)cc1)c1cccnc1)N1CCN(c2ccc(C(F)(F)F)cc2)CC1 [MMV689244]	33%	X* (Mean or standard deviation are negative but not significantly different from the control to be a growth promoter)	–	–	–	–
FC(F)(F)c1nnc2ccc(Cl)nn12 [MMV069458]	X* (Mean or standard deviation are negative but not significantly different from the control to be a growth promoter)	65%	–	–	–	–
CCS(=O)(=O)N(Cc1ccco1)Cc1cc2ccc(C)cc2[nH]c1=O [MMV676398]	22%	X* (Mean or standard deviation are negative but not significantly different from the control to be a growth promoter)	–	–	–	–
CN1CCN(S(=O)(=O)c2ccc(-c3ccc4c(Nc5ncc(Cl)cn5)ccnc4c3)cc2)CC1 [MMV688283]	95%	89%	≥ 95%	not potent	–	–
CO[C@@H](C(=O)N1Cc2[nH]nc(NC(=O)c3ccc(N4CCN(C)CC4)cc3)c2C1)c1ccccc1 [MMV676600]	6%	76%	–	–	–	–
COc1ccc(-c2cncc3ccc(C(=O)NCCCn4ccnc4)nc23)cc1 [MMV020670]	19%	42%	–	–	–	–
CS(=O)(=O)N1CCC(CCn2nc(Cc3cccc4ccccc34)c3c(N)ncnc32)CC1 [MMV688470]	23%	80%	–	–	–	–
CCc1nn(C)c(C(=O)NCc2ccc(Oc3ccc(C)cc3)cc2)c1Cl [MMV688934]	72%	88%	–	–	–	–
CC1CCCCN1C(=O)NCCc1coc(-c2ccc(F)cc2)n1 (stereo not drawn) [MMV688797]	23%	X* (Mean or standard deviation are negative but not significantly different from the control to be a growth promoter)	–	–	–	–
COc1ccc(OC(C)C(=O)Nc2ccc(Cl)cc2C)cc1 (stereo not drawn) [MMV202458]	11%	X* (Mean or standard deviation are negative but not significantly different from the control to be a growth promoter)	–	–	–	–
NCCN(C(=O)c1ccc(Cl)cc1Cl)c1ccc(OCc2ccc(Cl)cc2)cc1 [MMV688371]	72%	76%	–	–	–	–

SMILES	Giardia (16 uM) Mean % inhibition [1]	Crypto (10 uM) Mean % inhibition [2]	G. lamblia inhibition of parasite growth in the initial screen ([1]; 16 μM, 24 hours)	G. lamblia EC50 ([1]; luciferase expressing G. lamblia trophozoites, 24 hours, D-luciferin bioluminescence read-out)	C. parvum cell growth inhibition in the initial screen ([2]; 10 μM, 48 hours)	EC50 ([2]; Nluc C. parvum in HCT-8 cells, 48 hours, read-out: C. parvum EC50)
NS(=O)(=O)c1cccc(-c2ccc3ncc(N4CCOCC4)nc3c2)c1 [MMV023860]	27%	89%	–	–	–	–
Cc1cc(C)n(-c2ccc(NC(=O)C3CCN(Cc4cnc(C)s4)CC3)cc2)n1 [MMV007625]	27%	X* (Mean or standard deviation are negative but not significantly different from the control to be a growth promoter)	–	–	–	–
CN1CCN(c2nccc3[nH]c(-c4cccc(F)c4)cc23)CC1 [MMV393144]	77%	50%	–	–	–	–
CO/N=C(/C(=O)OC)c1ccccc1CO/N=C(/C)c1cccc(C(F)(F)F)c1 [MMV688754]	26%	X* (Mean or standard deviation are negative but not significantly different from the control to be a growth promoter)	–	–	–	–
Cc1cc(C)cc(COc2ccc3c(C)c(CCC(=O)O)c(=O)oc3c2C)c1 [MMV676476]	35%	X* (Mean or standard deviation are negative but not significantly different from the control to be a growth promoter)	–	–	–	–
CCCS(=O)(=O)N1CCC(CO)(Cc2ccccc2C(F)(F)F)CC1 [MMV001059]	10%	X* (Mean or standard deviation are negative but not significantly different from the control to be a growth promoter)	–	–	–	–
Cc1ccccc1C(=O)N1NC(=Nc2ccccc2)SC1(C)C [MMV688771]	51%	82%	–	–	–	–
CCOc1ccc(-c2nc(NC(=O)CS(=O)(=O)c3ccccc3)sc2C)cc1 [MMV007638]	8%	X* (Mean or standard deviation are negative but not significantly different from the control to be a growth promoter)	–	–	–	–
CCn1ncc2c(NC3CCOCC3)c(CNC(=O)c3ccnn3C)c(C)nc21 [MMV026356]	68%	31%	–	–	–	–
O=C(C1CCN(c2nnnn2-c2ccccc2)CC1)N1CCc2ccccc2C1 [MMV009135]	X* (Mean or standard deviation are negative but not significantly different from the control to be a growth promoter)	56%	–	–	–	–
O=C(Nc1nnc(-c2ccc(Cl)cc2)o1)c1cccc(C(F)(F)F)c1 [MMV102872]	35%	95%	–	–	≥ 95%	140 nM
CC1(C)OB(O)c2ccc(C3=NOC(c4cc(Cl)c(F)c(Cl)c4)(C(F)(F)F)C3)cc21 (stereo not drawn) [MMV687775]	X* (Mean or standard deviation are negative but not significantly different from the control to be a growth promoter)	56%	–	–	–	–
O=C(COc1cccc(F)c1)Nc1nc(-c2ccccn2)cs1 [MMV676409]	X* (Mean or standard deviation are negative but not significantly different from the control to be a growth promoter)	67%	–	–	–	–
COc1ccc(Cn2cnc3c(-c4ccco4)nc(Cl)nc32)cc1 [MMV687170]	40%	77%	–	–	–	–
CC(C)(C)c1ccc(N[C@@H]2CCCC[C@H]2NC(=O)c2ccco2)cc1 [MMV675969]	32%	X* (Mean or standard deviation are negative but not significantly different from the control to be a growth promoter)	–	–	–	–
CCc1ccc([C@@H]2C[C@H](C(F)(F)F)n3ncc(C(=O)NCc4ccc(OC)cc4)c3N2)cc1 [MMV687180]	23%	X* (Mean or standard deviation are negative but not significantly different from the control to be a growth promoter)	–	–	–	–
COc1ccc(N(CCc2cccc(C)n2)C(=O)C2CCCCC2)cc1 [MMV675996]	16%	X* (Mean or standard deviation are negative but not significantly different from the control to be a growth promoter)	–	–	–	–
Nc1nccc2ccc(-c3ccc4nccn4c3)cc12 [MMV023233]	85%	X* (Mean or standard deviation are negative but not significantly different from the control to be a growth promoter)	–	–	–	–
